According to patent US9873699B1, “Anti-cancer agents” (KING SAUD UNIVERSITY, priority 2017, dated 2018):

System: FaDu hypopharyngeal tumor cells
Assay: Cytotoxicity assay (MTT)
Type: cell-based
Conditions: 48 h
Protocol: The synthesized series of compounds 4a-m stock solution were prepared by dissolved in DMSO (Sigma-Aldrich, St. Louis, Mo., USA) or dH2O. The stock solutions were diluted with cell culture medium and used as a working solution. Different concentration of working solution was exposed to 5 to 7×10^3 cells seeded 96 well plates after 24 h incubation. DMSO/dH2O was used as the solvent control. Nuclear morphological changes were monitored and photographed following treatment of synthesized compounds for 48 h using inverted microscope (Carl Zeiss, Jena, Germany). After incubation, plates were centrifuged and washed with cell culture medium. Subsequently, 20 μL of MTT solution [5 mg/mL in phosphate-buffered saline (PBS)] was added to each well, and the plates were protected from light and kept in CO2 incubator at 37° C. for 4 h. The purple color formazan product was formed and dissolved in 100 μL of DMSO. The absorbance was monitored at 570 nm (measurement) and 630 nm (reference) using a 96 well plate reader (Bio-Rad, Hercules, Calif., USA). Data were collected for four replicates each and used to calculate the median effect dose or concentration, i.e., IC50 using the Calcusyn software.
The cytotoxicity of synthesized compounds 4(a-m) on FaDu hypopharyngeal tumor cells was assessed for 48 h, in comparison with the commercial anti-cancer drug bleomycin under identical conditions (FIGS. 6&7). […] The percentage of apoptotic cells is indicated by the histograms and the data shown are the means from triplicates. Vertical bars represent standard error of the mean.

Molecule	cytotoxicity against cancer cells (in words)
5′-benzyl-4′-(2,4-dichloropheynyl)-5-spiro[3,2′]oxindolopyrrolidino-4′-(2,4-dichlorophenyl-1″-styryl-5-benzylidene-spiro[3′.3″]piperidi-4″-one [Compound 4e]	good cytotoxicity
5′-benzyl-4′-(4-bromopheynyl)-5-spiro[3,2′]oxindolopyrrolidino-4′-(4-bromophenyl-1″-styryl-5-benzylidene-spiro[3′.3″]piperidi-4″-one [Compound 4c]	good cytotoxicity
5′-benzyl-5-spiro[3,2′]oxindolopyrrolidino-4′-(methylphenyl)-1″-styryl-5-benzylidene-spiro[3′.3″]piperidi-4″-one [Compound 4a]	excellent cytotoxic property
O=C1Nc2ccccc2C12NC(Cc1ccccc1)C(c1ccccc1Cl)C21CN(C=Cc2ccccc2)CC(=Cc2ccccc2Cl)C1=O (stereo not drawn) [Compound 4d]	good cytotoxicity
Cc1ccccc1C=C1CN(C=Cc2ccccc2)CC2(C1=O)C(c1ccccc1C)C(Cc1ccccc1)NC21C(=O)Nc2ccccc21 (stereo not drawn) [Compound 4g, 5′-benzyl-4′-(2-tolyl)-5-spiro[3,2′]oxindolopyrrolidino-4′-(2-methylphenyl)-1″-styryl-5-benzylidene-spiro[3′.3″]piperidi-4″-one]	excellent cytotoxic property
Cc1cccc(C=C2CN(C=Cc3ccccc3)CC3(C2=O)C(c2cccc(C)c2)C(Cc2ccccc2)NC32C(=O)Nc3ccccc32)c1 (stereo not drawn) [Compound 4h, 5′-benzyl-4′-(3-tolyl)-5-spiro[3,2′]oxindolopyrrolidino-4′-(3-methylphenyl)-1″-styryl-5-benzylidene-spiro[3′.3″]piperidi-4″-one]	good cytotoxicity
